In patent publication US6093714A, “Tricyclic benzazepine compounds” (priority 1995, dated 2000) one finds IC50 and inhibition in vivo data, which are given here for twelve compounds.

SMILES strings stand for the structures. Structures can show the parent of a compound that is named as a salt. Where two headings read alike, the source gives them in different places.

One test deals with intraperitoneal cells. Description: Histamine release reaction inhibition test (rat intraperitoneal cells, DNP-As antigen). It is filed as cell-based, Wistar male rat. As to conditions: 10^-5 to 10^-10 M test compound, DNP-As stimulated intraperitoneal cells, 10^5 cells/ml, read-out: IC50 (dose of the test compound required for inhibiting the histamine release reaction by 50%). Here is the method: Histamine release reaction inhibition test
(1) Preparation of antiserum
Rat anti-dinitrophenylated ascaris protein (hereinafter referred to as "DNP-As") serum was prepared according to the method established by Tada et al. (Tada, T. and Okumura, K., J. Immun. 106(4), 1971). Specifically, 1010 organisms of Bordetella pertussis and 1 mg of DNP-As were intramuscularly administered to the foot pad of the limbs of Brown norway male rats weighing 200 g, and, five days after the administration, 0.5 mg of DNP-As was intramuscularly administered to the back. Three days after that, blood was collected to prepare an antiserum. The titer of the antiserum was determined by using a 48-hr passive cutaneous anaphylaxis reaction using a rat and found to be 1:1000 to 1:2000.
(2) Induction of histamine release reaction and release reaction inhibitory activity
The above serum was diluted four times with physiological brine, and 1 ml of the diluted serum was intraperitoneally administered to a Wistar male rat. Two days after the administration, the abdominal cavity was washed with phosphate buffer, and intraperitoneal cells were collected. The cells were adjusted to 10^5 cells/ml and stimulated with 1 pg/ml DNP-As, and the amount of the histamine released on the supernatant was measured by the method established by Shore et al (Shore, P. A., Burkhalter, A. H. and Chon Jr. V. H. J. Pharm. Exp. Ther., 127 , 182-186 (1959)).
The amount of the released histamine treated with 10^-5 to 10^-10 M test compound was compared with that of non-treated group. The dose of the test compound required for inhibiting the histamine release reaction by 50% (IC50) was calculated based on the percentage inhibition. IC50 of sodium cromoglicate was used as a control.

In test [1] the test system is allergic foot-pad edema reaction. Put plainly: Immediate and late phase allergic response inhibition test (allergic foot-pad edema reaction). In kind it is in vivo, Wister male rats. As to conditions: Rattus norvegicus, po, 20 mg/kg orally, 10 min before induction. Here is the method:
Immediate and late phase allergic response inhibition test
Wister male rats weighing of 200 g were provided. 1010 organisms of Bordetella pertussis and 1 mg of dinitrophenylated ovalbumin (hereinafter abbreviated to "DNP-OA") were intramuscularly administered into the foot pad of the limbs of the rats except for the right hind leg. Further, ten days after the administration, 5 pg/site DNP-OA was subcutaneously administered to the right hind leg to induce allergic foot-pad edema reaction. The inhibitory activity of the test compounds was determined in such a manner that the volume of edema 30 min after the induction of the allergic reaction was regarded as an immediate phase allergic response and the volume of edema 8 hr after the induction of the allergic reaction was regarded as a late phase allergic response. Each test compound was dissolved or suspended in a 0.25% Tween 80 solution, and the solution or suspension was orally administered at a dose of 20 mg/kg 10 min before the induction of the allergic reaction.
Only the 0.25% Tween 80 solution was administered to the control group of rats not treated with any test compound, and 100 mg/kg sodium cromoglicate was subcutaneously or orally administered to the positive control group of rats.
The percentage inhibition of the allergic foot-pad edema reaction was determined by the following equation.
Percentage inhibition of allergic foot-pad edema reaction=(A-B)/A×100
wherein A: average edema volume for the non-treated control group of rats; and
B: average edema volume for the group of rats with the test compound administered.

[2] abbreviates: 0.5 h, edema 30 min after induction, read-out: Inhibition (%) Immediate phase response.
Setting [3] is: edema 8 hr after induction, read-out: Inhibition (%) Late phase response.

Broadly, the IC50 is the concentration that gives 50% inhibition. Turning to `O=C(COc1ccc2c(=O)c3[nH]nnc3c(=O)[nH]c2c1)NCc1ccccn1` [Example 16, 4(5H ),10-Dioxo-7-(N-(2-pyridylmethyl)carbamoylmethyloxy)-1H-1,2,3-triazolo[4,5-c][1]benzazepine trifluoroacetate], the IC50 in the test on intraperitoneal cells came to 2.8 nM. The inhibition in vivo at 20 mg/kg in test [1] (setting [2]) turned out to be 48%; in test [1] (setting [3]), 35%.

`Cc1cc2[nH]c(=O)c3nn[nH]c3c(=O)c2cc1O` [Example 28, 8-Hydroxy-7-methyl-4(5H),10-dioxo-1H-1,2,3-triazolo[4,5-c][1]benzazepine]: in the test on intraperitoneal cells, the half-inhibitory concentration (IC50) is 12 nM. In addition, the inhibition in vivo at 20 mg/kg was 51% in test [1] (setting [2]) and 48% in test [1] (setting [3]).

On to `Cc1cccc(/C=C/c2ccc3c(=O)c4[nH]nnc4c(=O)[nH]c3c2)n1` [Example 32, (E)-7-(2-(6-Methyl-2-pyridyl)-(E)-ethenyl)-4(5H),10-dioxo-1H-1,2,3-triazolo[4,5-c][1]benzazepine trifluoroacetate], for which the IC50 in the test on intraperitoneal cells turned out to be 1.2 nM. Besides, the figures for the inhibition in vivo at 20 mg/kg in test [1] (setting [2]) and in test [1] (setting [3]) were 55% and 43%, respectively.

For the compound `Cc1ccc(C(=O)Oc2ccc3c(=O)c4[nH]nnc4c(=O)[nH]c3c2)cc1` [Example 17, 4(5H),10-Dioxo-7-(4-toluoyloxy)-1H-1,2,3-triazolo[4,5-c][1]benzazepine], in the test with intraperitoneal cells, the IC50 was determined as 4.1 nM. Besides, the results for the inhibition in vivo at 20 mg/kg in test [1] (setting [2]) and in test [1] (setting [3]) were 44% and 24%, respectively.

For `O=c1[nH]c2cc(C=Cc3cccnc3)ccc2c(=O)c2[nH]nnc12` [Example 31, 4(5H),10-Dioxo-7-(2-(3-pyridyl)ethenyl)-1H-1,2,3-triazolo[4,5-c][1]benzazepine trifluoroacetate (E:Z=1:2)], the IC50 in the test with intraperitoneal cells amounted to 2 nM.

`O=c1[nH]c2cc(C(F)(F)F)ccc2c(=O)c2[nH]nnc12` [Example 34, 7-Trifluoromethyl-4(5H),10-dioxo-1H-1,2,3-triazolo[4,5-c][1]benzazepine]: the IC50 in the test with intraperitoneal cells is 5.3 nM. Moreover, the inhibition in vivo at 20 mg/kg in test [1] (setting [2]) was 66%; in test [1] (setting [3]), 59%.

Turning to `COc1ccc(C(=O)COc2cc3c(=O)c4[nH]nnc4c(=O)[nH]c3cc2C)cc1` [Example 27, 8-(4-Methoxyphenacyloxy)-7-methyl-4(5H),10-dioxo-1H-1,2,3-triazolo[4,5-c][1]benzazepine], in the test on intraperitoneal cells, the half-maximal inhibitory concentration (IC50) was 10 nM.

Turning to `O=c1[nH]c2cc(OCCCN3CCC(Cc4ccccc4)CC3)ccc2c(=O)c2[nH]nnc12` [Example 14, 7-(3-(4-Benzylpiperidino)propoxy)-4(5H),10-dioxo-1H-1,2,3-triazolo[4,5-c][1]benzazepine trifluoroacetate], the IC50 with intraperitoneal cells was 11 nM. For the same compound, the inhibition in vivo at 20 mg/kg in test [1] (setting [2]) amounted to 32%; in test [1] (setting [3]) it was 15%.

Take `O=c1[nH]c2cc(/C=C/c3ccccn3)ccc2c(=O)c2[nH]nnc12` [Example 11, 4(5H),10-Dioxo-7-(2-(2-pyridyl)-(E)-ethenyl)-1H-1,2,3-triazolo[4,5-c][1]benzazepine trifluoroacetate]: in the test with intraperitoneal cells, the IC50 is 1.8 nM.

Take `O=c1[nH]c2cc(/C=C/c3ccc4ccccc4n3)ccc2c(=O)c2[nH]nnc12` [Example 33, 4(5H),10-Dioxo-7-(2-(2-quinolyl)-(E)-ethenyl)-1H-1,2,3-triazolo[4,5-c][1]benzazepine trifluoroacetate]: the IC50 in the test with intraperitoneal cells worked out at 0.4 nM.

Consider `Cc1cc(C)c2[nH]c(=O)c3nn[nH]c3c(=O)c2c1` [Example 29, 6,8-Dimethyl-4(5H),10-dioxo-1H-1,2,3-triazolo[4,5-c][1]benzazepine], for which, in the test with intraperitoneal cells, the IC50 came out at 31 nM.

For `O=C(/C=C/c1ccc2c(=O)c3[nH]nnc3c(=O)[nH]c2c1)Nc1ccccc1C(=O)O` [Example 1, 7-(2-(N-(2-Carboxyphenyl)carbamoyl)-(E)-ethenyl)-4(5H),10-dioxo-1H-1,2,3-triazolo[4,5-c][1]benzazepine], the IC50 with intraperitoneal cells came to 6 nM.
